In patent US8273749B2, “N-substituted oxindoline derivatives as calcium channel blockers” (Merck Sharp & Dohme Corp., priority 2007, dated 2012):

The compounds below were run against T1, N-type calcium channel (Cav2.2) (Homo sapiens, UniProt Q00975) (assay: Cav2.2 (N-type) calcium channel block: fluorescent potassium-depolarization assay and IonWorks / PatchXpress / manual patch clamp electrophysiology). Conditions: aforementioned assays (Assay Examples 1-3); which assay or condition is not specified; read-out: IC50 in antagonizing the N-type calcium channel.
T1 construct: expressed in transfected cells
T1 sequence (Q00975 whole entry): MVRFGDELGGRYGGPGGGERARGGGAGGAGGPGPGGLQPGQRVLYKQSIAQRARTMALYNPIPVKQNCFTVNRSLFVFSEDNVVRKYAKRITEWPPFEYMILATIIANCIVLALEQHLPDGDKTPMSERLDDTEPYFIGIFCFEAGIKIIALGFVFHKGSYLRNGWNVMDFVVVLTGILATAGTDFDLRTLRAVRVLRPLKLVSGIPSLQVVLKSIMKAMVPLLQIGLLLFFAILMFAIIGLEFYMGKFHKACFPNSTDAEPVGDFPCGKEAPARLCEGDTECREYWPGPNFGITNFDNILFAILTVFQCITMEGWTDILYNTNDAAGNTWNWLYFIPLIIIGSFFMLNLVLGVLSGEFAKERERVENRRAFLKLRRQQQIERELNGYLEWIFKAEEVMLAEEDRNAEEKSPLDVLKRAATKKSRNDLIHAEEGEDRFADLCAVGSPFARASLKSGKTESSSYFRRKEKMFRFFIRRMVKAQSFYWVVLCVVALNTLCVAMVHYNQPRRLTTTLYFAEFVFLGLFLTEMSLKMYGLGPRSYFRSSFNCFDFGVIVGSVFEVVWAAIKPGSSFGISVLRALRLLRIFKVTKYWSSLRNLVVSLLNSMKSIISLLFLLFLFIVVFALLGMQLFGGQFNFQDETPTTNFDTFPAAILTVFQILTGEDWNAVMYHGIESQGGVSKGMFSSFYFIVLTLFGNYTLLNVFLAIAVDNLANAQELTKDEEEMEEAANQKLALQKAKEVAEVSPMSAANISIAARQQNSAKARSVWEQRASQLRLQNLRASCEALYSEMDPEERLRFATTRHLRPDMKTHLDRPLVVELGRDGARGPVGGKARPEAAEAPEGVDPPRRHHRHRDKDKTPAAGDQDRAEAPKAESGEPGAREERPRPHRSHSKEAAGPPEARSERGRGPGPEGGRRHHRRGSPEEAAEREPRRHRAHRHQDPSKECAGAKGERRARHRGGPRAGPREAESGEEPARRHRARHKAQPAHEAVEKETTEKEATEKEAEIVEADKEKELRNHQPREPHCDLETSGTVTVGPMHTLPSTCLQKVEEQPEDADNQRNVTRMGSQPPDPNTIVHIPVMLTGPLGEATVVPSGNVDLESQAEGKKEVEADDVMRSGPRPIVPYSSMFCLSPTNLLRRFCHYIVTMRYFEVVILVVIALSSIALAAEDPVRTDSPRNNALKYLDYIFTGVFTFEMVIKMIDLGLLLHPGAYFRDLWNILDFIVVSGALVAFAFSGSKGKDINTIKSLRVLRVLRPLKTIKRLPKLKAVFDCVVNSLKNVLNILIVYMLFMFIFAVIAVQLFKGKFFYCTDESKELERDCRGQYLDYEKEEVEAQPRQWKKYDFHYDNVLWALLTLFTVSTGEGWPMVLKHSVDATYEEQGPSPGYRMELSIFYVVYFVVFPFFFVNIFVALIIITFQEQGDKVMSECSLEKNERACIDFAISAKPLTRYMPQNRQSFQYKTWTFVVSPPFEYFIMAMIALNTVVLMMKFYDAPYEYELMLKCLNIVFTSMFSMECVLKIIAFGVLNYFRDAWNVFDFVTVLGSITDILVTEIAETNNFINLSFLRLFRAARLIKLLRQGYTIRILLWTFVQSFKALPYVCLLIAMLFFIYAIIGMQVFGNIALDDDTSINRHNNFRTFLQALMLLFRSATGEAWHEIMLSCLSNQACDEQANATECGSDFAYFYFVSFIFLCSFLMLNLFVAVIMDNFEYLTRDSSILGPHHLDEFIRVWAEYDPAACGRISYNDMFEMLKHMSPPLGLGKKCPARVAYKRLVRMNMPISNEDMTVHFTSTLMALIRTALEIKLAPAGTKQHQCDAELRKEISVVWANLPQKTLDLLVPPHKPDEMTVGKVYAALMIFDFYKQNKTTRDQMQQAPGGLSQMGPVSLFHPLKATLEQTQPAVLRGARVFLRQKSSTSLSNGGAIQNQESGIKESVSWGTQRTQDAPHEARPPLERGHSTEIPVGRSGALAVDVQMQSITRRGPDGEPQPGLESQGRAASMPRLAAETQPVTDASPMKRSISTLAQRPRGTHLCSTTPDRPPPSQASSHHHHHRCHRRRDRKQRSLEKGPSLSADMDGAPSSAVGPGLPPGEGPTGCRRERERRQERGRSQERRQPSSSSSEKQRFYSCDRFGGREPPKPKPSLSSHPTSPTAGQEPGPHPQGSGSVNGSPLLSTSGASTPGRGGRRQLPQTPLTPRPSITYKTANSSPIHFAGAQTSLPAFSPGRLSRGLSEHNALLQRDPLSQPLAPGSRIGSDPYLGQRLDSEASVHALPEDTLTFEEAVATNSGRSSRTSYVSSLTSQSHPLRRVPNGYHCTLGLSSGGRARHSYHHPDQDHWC
Type: cell-based
Description: Human Cav2.2 channels were stably expressed in HEK293 cells along with alpha2-delta and beta subunits of voltage-gated calcium channels. An inwardly rectifying potassium channel (Kir2.3) was also expressed in these cells to allow more precise control of the cell membrane potential by extracellular potassium concentration. At low bath potassium concentration, the membrane potential is relatively negative, and is depolarized as the bath potassium concentration is raised. In this way, the bath potassium concentration can be used to regulate the voltage-dependent conformations of the channels. Compounds are incubated with cells in the presence of low (4 mM) potassium or elevated (12, 25 or 30 mM) potassium to determine the affinity for compound block of resting (closed) channels at 4 mM potassium or affinity for block of open and inactivated channels at 12, 25 or 30 mM potassium. After the incubation period, Cav2.2 channel opening is triggered by addition of higher concentration of potassium (70 mM final concentration) to further depolarize the cell. The degree of state-dependent block can be estimated from the inhibitory potency of compounds after incubation in different potassium concentrations.
Calcium influx through Cav2.2 channels is determined using a calcium-sensitive fluorescent dye in combination with a fluorescent plate reader. Fluorescent changes were measured with either a VIPR (Aurora Instruments) or FLIPR (Molecular Devices) plate reader.
• 1. Seed cells in Poly-D-Lysine Coated 96- or 384-well plate and keep in a 37° C.-10% CO2 incubator overnight • 2. […] Read cell plate on VIPR instrument, Excitation=480 nm, Emission=535 nm • 9. With VIPR continuously reading, add 0.1 mL (96-well plate) or 0.03 mL (384-well plate) of Depolarization Buffer, which is 2× the final assay concentration, to the cell plate. […]
Block of N-type calcium channels is evaluated utilizing the IonWorks HT 384 well automated patch clamp electrophysiology device. […]

Q: Which IC50 does the source give for `Cn1cnc(N2C(=O)C(C)(Cc3cncnc3)c3cc(-c4cccc(OC(F)(F)F)c4)ccc32)c1` (stereo not drawn) [Example 18, 3-methyl-1-(1-methyl-1H-imidazol-4-yl)-3-pyrimidin-5-ylmethyl-5-(3-trifluoromethoxy-phenyl)-1,3-dihydro-indol-2-one] here?
A: 260 nM

Q: With `CC1(Cc2cncnc2)C(=O)N(c2cnc(N)cn2)c2ccc(-c3ccc(F)c(Cl)c3)cc21` (stereo not drawn) [Example 10, 1-(5-aminopyrazin-2-yl)-5-(3-chloro-4-fluorophenyl)-3-methyl-3-(pyrimidin-5-ylmethyl)-1,3-dihydro-2H-indol-2-one] as the compound, how does the IC50 read?
A: 520 nM

Q: For `CC1(Cc2cncnc2)C(=O)N(c2nc[nH]n2)c2ccc(-c3ccc(F)c(Cl)c3)cc21` (stereo not drawn) [Example 2, 5-(3-chloro-4-fluorophenyl)-3-methyl-3-(pyrimidin-5-ylmethyl)-1-(1H-1,2,4-triazol-3-yl)-1,3-dihydro-2H-indol-2-one], which IC50 is on record?
A: 230 nM
